Here are results for 3 compounds from patent US20090022726A1, “METHOD OF USING IL6 ANTAGONISTS WITH PROTEASOME INHIBITORS” (priority 2005, published 2009).

The subject of data set [1] is IL-6 signaling, HSP-70 and MKP-1 in ANBL-6 cells. Nature of the data set: Immunoblot analysis of IL-6 signaling, HSP-70 and MKP-1 with densitometry. In kind it is cell-based. On the procedure:
ANBL-6 cells were incubated with 10 mcg/ml of CNTO 328 or the control antibody, F105, with or without increasing concentrations of bortezomib for 8 hours. Cell lysates were prepared and subjected to immunoblot analysis. Blots were stripped and probed for HSC-70 to ensure equal protein loading per lane. Densitometry was performed on HSP-70 and MKP-1 immunoblots.
Background: Immunoblotting shows a protein as a band on a membrane.

Data set [2] deals with refractory or relapsed myeloma. To be noted: refractory or relapsed disease, initial phase II clinical trial (Richardson et al. 2003); cited from earlier work.
Another data set concerns proteasome. To be noted: over human leukocyte elastase, cathepsin G, chymotrypsin and thrombin; cited from earlier work.
For data set [3], the system named is IL-6 signaling in KAS-6 cells. In words: Down-regulation of IL-6 signaling (phospho-protein levels). Format: cell-based.
Data set [4] has as its system KAS-6 cells. In words: ELISA-based apoptosis assay (mono- and oligo-nucleosomes), antibody and bortezomib. To be noted: KAS-6, 1 mcg/ml CNTO 328 with bortezomib, 12 hours. Format: cell-based. As to the method:
(§1) ANBL-6 and KAS-6 cells were incubated with 10 mcg/ml (ANBL-6) or 1 mcg/ml (KAS-6) of CNTO 328 or the control antibody, F105, for 8 (ANBL-6) to 12 (KAS-6) hours. Apoptosis was determined using an ELISA-based assay that measures the presence of mono- and oligo-nucleosomes (Roche Applied Science, Indianapolis, Ind.) and expressed as a fold increase in apoptosis over DMSO and F105-treated controls. Cells were treated in RPMI 1640 media containing 10% FBS and 1 ng/mL of IL-6 (FIGS. 3 A and B, column height represents the mean of triplicate cultures; bars, SEM).
For orientation: ELISA stands for enzyme-linked immunosorbent assay.

Data set [5] relates to ANBL-6 cells. The description is as above. Format: cell-based. To be noted: ANBL-6, 10 mcg/ml CNTO 328 with bortezomib, 8 hours. On the procedure: as §1
The test system of data set [6] is KAS-6 cells. Nature of the data set: WST-1 cell viability, antibody alone. Format: cell-based. To be noted: increasing concentrations, 24 and 48 hours, 1 ng/mL of IL-6. As to the method:
(§2) ANBL-6 and KAS-6 cells (Dr. Diane Jelinek, Mayo Clinic, Rochester, Minn.) were incubated with increasing concentrations of CNTO 328 or the isotype control antibody, F105, for 24 and 48 hours. For the last 4 hours, the cells were incubated in the presence of WST-1 (Roche Applied Science, Indianapolis, Ind.). Reduction of WST-1 into a water soluble formazan salt by viable cells was measured at an absorbance of 450 nm using an ELISA plate reader. Viability was measured as percent viability relative to untreated cells. All cells were treated in RPMI 1640 media containing 10% FBS and 1 ng/mL of IL-6.
Background: Tetrazolium dyes change colour on reduction, which living cells bring about.

The test system of data set [7] is ANBL-6 cells. Nature of the data set: WST-1 cell viability, antibody alone. In kind it is cell-based. To be noted: increasing concentrations, 24 and 48 hours, 1 ng/mL of IL-6. On the procedure:
as §2

Data set [8] has as its system IL-6-independent myeloma cell line RPMI 8226. In words: ELISA-based apoptosis assay, antibody and bortezomib. In kind it is cell-based. To be noted: RPMI 8226, data not shown.
Data set [9] deals with IL-6-independent RPMI 8226 myeloma cell line. Nature of the data set: WST-1 cell viability, antibody combined with bortezomib. In kind it is cell-based. To be noted: RPMI 8226, 10 mcg/ml antibody pre-incubated 24 hours, then bortezomib 24 hours. On the procedure: as §2
(§3) The ANBL-6, KAS-6, or IL-6-independent RPMI 8226 myeloma cell lines were pre-incubated with 0.1 mcg/ml (KAS-6) or 10 mcg/ml (ANBL-6 and RPMI 8226) of the control antibody, F105, or CNTO 328 for 24 hours, followed by co-incubation with either DMSO control or increasing concentrations of bortezomib in the continued presence of F105 or CNTO 328 for another 24 hours. For sequencing experiments, ANBL-6 cells were treated with: 1) F105 or CNTO 328 for 24 hours followed by F105 or CNTO 328 and bortezomib 5 nM for another 24 hours (antibody→bortezomib); 2) F105 or CNTO 328 and bortezomib 5 nM concurrently for 24 hours (antibody+bortezomib), or bortezomib at 5 nM for 12 hours followed by F105 or CNTO 328 for 24 hours (bortezomib→antibody). Cell viability was assayed as described above and measured as percent viability relative to untreated cells. All cells were treated in RPMI 1640 media containing 10% FBS and 1 ng/mL of IL-6. Columns, mean of quintuplicate cultures; bars, SEM.

Data set [10] has as its system KAS-6 cells. The description is as above. In kind it is cell-based. To be noted: KAS-6, 0.1 mcg/ml antibody pre-incubated 24 hours, then bortezomib 24 hours; relative to control antibody F105. On the procedure: as §2, §3
For data set [11], the system named is ANBL-6 cells. Described as above. In kind it is cell-based. As to the method: as §2, §3
In data set [12] the test system is KAS-6 cells. Nature of the data set: Apoptosis, KNK437 with bortezomib. In kind it is cell-based.
A further data set relates to HSF-1 knockout MEFs. Nature of the data set: Apoptosis assay, KNK437 with bortezomib. In kind it is cell-based, mouse. To be noted: 24 hours. On the procedure:
as §1
(§4) ANBL-6 or MEF cells (control and HSF-1−/−) were incubated with either DMSO control or increasing concentrations of bortezomib and KNK437 for 12 (ANBL-6) to 24 hours (MEFs). Apoptosis was determined as described above and expressed as a fold increase in apoptosis over DMSO-treated controls. ANBL-6 cells were treated in RPMI 1640 media containing 10% FBS and 1 ng/mL of IL-6 (FIG. 5, columns, mean of triplicate cultures; bars, SEM).

Data set [13] deals with normal mouse embryo fibroblasts (MEFs). In words: Apoptosis assay, KNK437 with bortezomib. Format: cell-based. To be noted: normal (HSF-1+/+) MEFs, 24 hours. On the procedure: as §1, §4
Data set [14] deals with ANBL-6 cells. In words: Apoptosis assay, KNK437 with bortezomib. In kind it is cell-based. To be noted: ANBL-6, KNK437 with bortezomib, 12 hours, compared with control treated cells. As to the method:
as §1, §4

The mark [15] stands for this setting: 10 mcg/ml CNTO 328 with bortezomib, 8 hours, densitometry.
The mark [16] stands for this setting: CNTO 328 with bortezomib, immunoblot.

“Also recorded” adds a separate entry of the source.

With `CC(C)C[C@H](NC(=O)[C@H](Cc1ccccc1)NC(=O)c1cnccn1)B(O)O` [bortezomib, reference compound], in data set [1] (8 hours, immunoblot), the “levels of phospho-STAT-3” value is on record as “decreased levels” and the “levels of phospho-p42/44 MAPK” value is given as “decreased levels”. In addition, the “patients with partial responses or better” value in data set [2] was 27%. For the same compound, the “selectivity for the proteasome over other serine proteases” value with proteasome was above 500 fold.
On to “CNTO 328: chimeric monoclonal IL-6 neutralizing antibody”, for which the “phospho-STAT-3 and phospho-p42/44 MAPK levels” value in data set [3] was “marked decrease”. Besides, in data set [1] (setting [15]), the “decrease of bortezomib-mediated induction of HSP-70” value was 45%. Further, the “decrease of bortezomib-mediated induction of MKP-1” value in [1] (setting [15]) stood at 90%. Also, the “levels of phospho-STAT-3” value in data set [1] (8 hours, immunoblot) was “reduction in levels”. In data set [1] (8 hours, immunoblot), the “levels of phospho-p42/44 MAPK” value was “reduction in levels”. The “levels of hyperphosphorylated HSF-1” value in data set [1] (setting [16]) is on record as “decreased levels”. Moreover, in data set [1] (setting [16]), the “levels of transcriptionally active phospho-STAT-1” value was “decreased levels”. For the same compound, the “induction of apoptosis (fold increase over DMSO and F105-treated controls)” value in the data set with KAS-6 cells [4] and with ANBL-6 cells [5] was “enhanced induction of apoptosis; also recorded: greater than the sum of the two individual agents alone” throughout. Further, the “cell viability (percent viability relative to untreated cells)” value was “dose- and time-dependent reduction in cell viability” in the data set on KAS-6 cells [6]; “dose- and time-dependent reduction in cell viability” with ANBL-6 cells [7]. Moreover, the potentiation of apoptosis entry in data set [8] is “not able to potentiate apoptosis”. Besides, the “effect on activity of bortezomib (cell viability)” value in data set [9] is on record as “did not enhance the activity of bortezomib”. The “effect on cytotoxicity of bortezomib (cell viability)” value with KAS-6 cells [10] was “potentiated the cytotoxicity of bortezomib”; in the data set on ANBL-6 cells [11] (ANBL-6, 10 mcg/ml antibody pre-incubated 24 hours, then bortezomib 24 hours, relative to control antibody F105) it was “potentiated the cytotoxicity of bortezomib”. Also, the “effect on cytotoxicity of bortezomib, sequencing” value is reported as “enhanced the cytotoxicity of bortezomib most” in the data set on ANBL-6 cells [11] (ANBL-6, antibody 24 hours followed by antibody and bortezomib 5 nM 24 hours (antibody→bortezomib)); “enhanced the cytotoxicity of bortezomib most” in the data set on ANBL-6 cells [11] (ANBL-6, antibody and bortezomib 5 nM concurrently for 24 hours (antibody+bortezomib)); “little additional effect” in the data set on ANBL-6 cells [11] (ANBL-6, bortezomib 5 nM 12 hours followed by antibody 24 hours (bortezomib→antibody)).
On to `O=CN1CC/C(=C\c2ccc3c(c2)OCO3)C1=O` [KNK437], for which, in the data set with KAS-6 cells [12], the “apoptotic activity of bortezomib” value is “enhanced the apoptotic activity of bortezomib”. Further, the “synergistic activity with bortezomib (apoptosis)” value in the data set with HSF-1 knockout MEFs was “blunted”; in [13], “reproduced”. Further, in the data set on ANBL-6 cells [14], the “bortezomib-mediated apoptosis (fold increase over DMSO-treated controls)” value was “significant increase in bortezomib-mediated apoptosis”.
